Consider 35 compounds from ChEMBL document CHEMBL2331404, “Mono-/dihydroxybenzoic acid esters and phenol pyridinium derivatives as inhibitors of the mammalian carbonic anhydrase isoforms I, II, VII, IX, XII and XIV” (Bioorg Med Chem, 2013).

Experiment [1] addresses Carbonic anhydrase 12 (Homo sapiens, UniProt O43570).
Experiment [2] concerns the target Carbonic anhydrase 7 (Homo sapiens, UniProt P43166). As to the kind of experiment: Inhibition of human carbonic anhydrase 7 preincubated for 15 mins by CO2 hydration stopped-flow assay.
In experiment [3] the target is Carbonic anhydrase 14 (Homo sapiens, UniProt Q9ULX7).
Carbonic anhydrase 14, sequence (Q9ULX7 whole entry): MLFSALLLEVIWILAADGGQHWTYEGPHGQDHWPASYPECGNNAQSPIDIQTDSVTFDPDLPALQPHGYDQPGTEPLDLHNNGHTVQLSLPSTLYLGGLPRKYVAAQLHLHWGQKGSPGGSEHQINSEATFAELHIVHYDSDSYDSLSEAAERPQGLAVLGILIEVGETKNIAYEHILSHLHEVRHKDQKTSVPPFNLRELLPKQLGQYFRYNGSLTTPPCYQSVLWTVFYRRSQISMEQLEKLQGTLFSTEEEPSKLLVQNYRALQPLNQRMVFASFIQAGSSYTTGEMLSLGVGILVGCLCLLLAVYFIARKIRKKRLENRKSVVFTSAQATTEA
Description: Inhibition of human carbonic anhydrase 14 preincubated for 15 mins by CO2 hydration stopped-flow assay
The target of experiment [4] is Carbonic anhydrase 9 (Homo sapiens, UniProt Q16790).
Description: Inhibition of human carbonic anhydrase 9 preincubated for 15 mins by CO2 hydration stopped-flow assay
Experiment [5] deals with Carbonic anhydrase 2 (Homo sapiens, UniProt P00918).
Description: Inhibition of human carbonic anhydrase 2 preincubated for 15 mins by CO2 hydration stopped-flow assay
The target of experiment [6] is Carbonic anhydrase 1 (Homo sapiens, UniProt P00915).
Carbonic anhydrase 1, sequence (P00915 whole entry): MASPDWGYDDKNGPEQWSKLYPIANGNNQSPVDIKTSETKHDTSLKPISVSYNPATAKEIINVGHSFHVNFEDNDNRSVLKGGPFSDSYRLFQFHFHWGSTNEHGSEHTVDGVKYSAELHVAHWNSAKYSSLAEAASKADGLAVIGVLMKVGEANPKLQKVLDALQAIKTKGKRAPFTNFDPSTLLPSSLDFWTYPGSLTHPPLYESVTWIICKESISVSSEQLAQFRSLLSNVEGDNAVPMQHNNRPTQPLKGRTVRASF
Description: Inhibition of human carbonic anhydrase 1 preincubated for 15 mins by CO2 hydration stopped-flow assay

SMILES strings stand for the structures.

Carbonic anhydrase 12, sequence (O43570 whole entry): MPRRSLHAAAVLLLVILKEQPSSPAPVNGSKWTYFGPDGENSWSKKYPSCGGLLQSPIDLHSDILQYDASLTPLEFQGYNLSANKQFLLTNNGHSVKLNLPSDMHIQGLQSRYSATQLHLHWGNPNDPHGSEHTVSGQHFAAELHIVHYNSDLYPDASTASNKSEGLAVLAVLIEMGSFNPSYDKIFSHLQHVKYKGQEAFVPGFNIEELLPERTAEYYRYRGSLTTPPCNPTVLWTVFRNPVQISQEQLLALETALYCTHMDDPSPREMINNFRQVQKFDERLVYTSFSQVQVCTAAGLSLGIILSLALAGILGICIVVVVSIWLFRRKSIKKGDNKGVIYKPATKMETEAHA
Carbonic anhydrase 7, sequence (P43166 whole entry): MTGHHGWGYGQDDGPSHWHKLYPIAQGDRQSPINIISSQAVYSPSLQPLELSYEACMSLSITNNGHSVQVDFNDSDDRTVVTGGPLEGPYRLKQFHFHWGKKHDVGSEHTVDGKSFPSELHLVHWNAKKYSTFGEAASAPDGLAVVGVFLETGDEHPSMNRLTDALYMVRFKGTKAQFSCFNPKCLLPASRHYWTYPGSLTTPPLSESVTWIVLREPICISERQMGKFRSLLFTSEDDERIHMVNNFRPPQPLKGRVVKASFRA

Regarding `CCOC(=O)c1ccc(O)cc1` [ETHYLPARABEN], the inhibitory constant (Ki) in experiment [1] amounted to 8.6 µM; in experiment [2], 8.7 µM; in experiment [3], 7.7 µM; in experiment [4], 8200 nM; in experiment [5], 4800 nM; in experiment [6], 7.9 µM.

For the compound `CC(C)OC(=O)c1c(O)cccc1O`, the Ki in experiment [4] was found to be 790 nM; in experiment [5], 530 nM.

For `O=C(O)c1cc(-c2c3ccc(=O)cc-3oc3cc(O)ccc23)ccc1NC(=S)NCCc1ccc(O)c(O)c1`, the Ki in experiment [4] was 6700 nM; in experiment [5] it was 4400 nM.

On to `CC(C)OC(=O)c1ccc(O)cc1` [ISOPROPYL 4-HYDROXYBENZOATE], for which the Ki in experiment [4] was found to be 7400 nM; in experiment [5], 4400 nM.

Turning to `CC(C)OC(=O)c1cc(O)cc(O)c1`, the Ki in experiment [4] amounted to 900 nM; in experiment [5], 700 nM.

As to `CCOC(=O)/C=C/c1ccc(O)cc1` [ETHYL P-COUMARATE], the Ki stood at 610 nM in experiment [4] and 710 nM in experiment [5].

With `CCOC(=O)c1cc(O)ccc1O`, the Ki in experiment [5] stood at 690 nM.

With `Cc1cc(C)[n+](CCc2ccccc2-c2ccccc2)c(C)c1`, the Ki came out at 710 nM in experiment [4] and 4700 nM in experiment [5].

Turning to `O=C(O)c1cc(O)ccc1O` [GENTISIC ACID], the Ki in experiment [1] is 7.3 µM; in experiment [2] it was 68 µM; in experiment [3], 67 µM; in experiment [4], 6600 nM; in experiment [6] it was 4.2 µM.

Take `O=C(O)c1c(O)cccc1O`: the Ki in experiment [1] amounted to 7.2 µM; in experiment [2] it was 6.6 µM; in experiment [3] it was 6.5 µM; in experiment [4] it was 5900 nM; in experiment [5], 5200 nM; in experiment [6], 5.7 µM.

With `Cc1cc(C)[n+](-c2cc(O)ccc2Cl)c(C)c1`, the Ki in experiment [4] is 700 nM; in experiment [5], 490 nM.

For `Nc1cccc(O)c1` [3-AMINOPHENOL], the inhibition constant (Ki) was determined as 7.7 µM in experiment [1]; 5.9 µM in experiment [2]; 7.2 µM in experiment [3]; 4900 nM in experiment [4]; 4700 nM in experiment [5]; 4.9 µM in experiment [6].

For the compound `COC(=O)c1ccc(O)cc1` [METHYLPARABEN], the Ki is 0.82 µM in experiment [1]; 0.78 µM in experiment [2]; 4.1 µM in experiment [3]; 5500 nM in experiment [4]; 3400 nM in experiment [5]; 2.6 µM in experiment [6].

`CCOC(=O)c1cc(O)cc(O)c1`: the values for the Ki in experiment [4] and in experiment [5] were 910 nM and 660 nM, respectively.

Turning to `CCOC(=O)c1ccc(O)cc1O`, the Ki in experiment [4] came to 820 nM; in experiment [5] it was 520 nM.

For `CC(C)OC(=O)c1ccc(O)c(O)c1`, the Ki in experiment [4] is 800 nM; in experiment [5] it was 420 nM.

As for `CC(C)OC(=O)c1ccc(O)cc1O`, the Ki in experiment [4] is 310 nM; in experiment [5], 510 nM.

Consider `Cc1cc(C)[n+](CCc2ccccc2C)c(C)c1`, for which the inhibition constant (Ki) in experiment [4] stood at 830 nM; in experiment [5], 6800 nM.

As to `CC(C)OC(=O)/C=C/c1ccc(O)cc1` [ISOPROPYL 3-(4-HYDROXYPHENYL)ACRYLATE], the Ki in experiment [1] is 0.76 µM; in experiment [2], 0.69 µM; in experiment [3] it was 0.73 µM; in experiment [4] it was 680 nM; in experiment [5] it was 520 nM; in experiment [6], 0.54 µM.

Turning to `COC(=O)c1ccc(O)c(O)c1` [METHYL PROTOCATECHUATE], the figures for the Ki in experiment [4] and in experiment [5] were 790 nM and 580 nM, respectively.

As to `COC(=O)/C=C/c1ccc(O)cc1` [METHYL P-HYDROXYCINNAMATE], the Ki in experiment [1] turned out to be 0.81 µM; in experiment [2] it was 0.82 µM; in experiment [3], 0.83 µM; in experiment [4], 850 nM; in experiment [5] it was 800 nM; in experiment [6], 0.78 µM.

`O=C(O)c1cc(O)cc(O)c1` [3,5-DIHYDROXYBENZOIC ACID]: the Ki stood at 7.17 µM in experiment [2] and 0.65 µM in experiment [3].

With `COC(=O)c1c(O)cccc1O`, the Ki in experiment [4] is 810 nM; in experiment [5], 700 nM.

Turning to `CCOC(=O)c1c(O)cccc1O`, the figures for the Ki in experiment [4] and in experiment [5] were 780 nM and 560 nM, respectively.

As for `O=C(O)c1ccc(O)cc1O` [2,4-DIHYDROXYBENZOIC ACID], the Ki was determined as 7.5 µM in experiment [1]; 72 µM in experiment [2]; 70 µM in experiment [3]; 68000 nM in experiment [4]; 4900 nM in experiment [5]; 5.2 µM in experiment [6].

Take `O=C(O)c1ccc(O)c(O)c1` [PROTOCATECHUIC ACID]: the Ki in experiment [2] amounted to 7.87 µM; in experiment [3], 0.69 µM.

As to `COc1ccc(C(=O)O)cc1OC` [VERATRIC ACID], the Ki was determined as 7.15 µM in experiment [2] and 0.74 µM in experiment [3].

For `COC(=O)c1cc(O)cc(O)c1` [METHYL 3,5-DIHYDROXYBENZOATE], the Ki turned out to be 810 nM in experiment [4] and 690 nM in experiment [5].

As to `Cc1cc(C)[n+](-c2cccc(O)c2)c(C)c1`, the Ki is 680 nM in experiment [4] and 320 nM in experiment [5].

On to `CC(C)OC(=O)c1cc(O)ccc1O`, for which the values for the Ki in experiment [4] and in experiment [5] were 810 nM and 580 nM, respectively.

As for `COC(=O)c1cc(O)ccc1O` [METHYL 2,5-DIHYDROXYBENZOATE], the Ki amounted to 840 nM in experiment [4] and 770 nM in experiment [5].

As to `COc1ccc(OC)cc1` [1,4-DIMETHOXYBENZENE], the Ki amounted to 3.88 µM in experiment [2] and 6.79 µM in experiment [3].

Consider `CCOC(=O)c1ccc(O)c(O)c1`, for which the Ki in experiment [4] came to 780 nM; in experiment [5] it was 610 nM.

Consider `Nc1cc(O)ccc1Cl`, for which the results for the Ki in experiment [4] and in experiment [5] were 4700 nM and 4900 nM, respectively.

Consider `COC(=O)c1ccc(O)cc1O` [METHYL 2,4-DIHYDROXYBENZOATE], for which the Ki turned out to be 0.95 µM in experiment [1]; 0.85 µM in experiment [2]; 0.86 µM in experiment [3]; 890 nM in experiment [4]; 760 nM in experiment [5]; 0.83 µM in experiment [6].

Broadly, the Ki is a dissociation constant, usually derived from enzyme kinetics or from competition with a known ligand. A lower Ki goes with higher affinity.
